The text below walks through data of patent US6472152B1 (priority 1998, dated 2002).

Data set [1] has as its system TA104 recN2-4 and TA104 pr1 strain.
In data set [2] the test system is Salmonella typhimurium TA104 pr1.
Data set [3] concerns Salmonella typhimurium TA104 recN2-4.
Another data set concerns SOS signal. The conditions noted are these: normally; cited from earlier work.
The test system of data set [4] is Salmonella typhimurium TA104 recN2-4. As to conditions: van der Lelie et al, 1997; cited from earlier work.
[5] abbreviates: without S9-mix, ratio of maximal S/N values.
Where [6] appears, read: without S9-mix, ratio of mean S/N values.
Where [7] appears, read: without S9-mix, maximal S/N, 60-240 min.
The mark [8] stands for this setting: without S9-mix, within the dose-range tested.

Values joined by “and” are separate entries in the source; they are usually repeats but may differ in a detail not shown here. Equal entries are not always repeated. Where two headings read alike, the source gives them in different places.

Turning to `O=[N+]([O-])c1ccc2c(c1)Cc1cc([N+](=O)[O-])ccc1-2` [2,7Dinitrofluoreen], in data set [1], the “concentration at which S/R's of rec/pri >1.5 MAX” value is given as 0.62 ppm and the “concentration at which S/R's of rec/pri >1.5 MEAN” value is on record as 0.62 ppm. The “Toxic (pri)” value in data set [2] is reported as “−”. Also, in data set [3], the “concentration at which S/R > 2 (recN2 − 4)” value (“concentration … (recN2 − 4)” for short) worked out at 0.62 ppm.

Regarding `Nc1ccc2c(c1)Cc1ccccc1-2` [2AF], in data set [1], the “concentration at which S/R's of rec/pri >1.5 MAX” value amounted to 0.2 ppm and the “concentration at which S/R's of rec/pri >1.5 MEAN” value turned out to be 0.2 ppm.

For the molecule `O=[N+]([O-])c1ccc2c3c(cccc13)-c1ccccc1-2` [3-Nitrofluoranthene], the “concentration at which S/R's of rec/pri >1.5 MAX” value was 31.2 ppb in data set [1] (S9-mix +25 μl/ml); 31.3 ppb in data set [1] (setting [5]); 0.064 ppm in data set [1] (without S9-mix, ratio of maximal S/N values, listed as 3Nitrofluoranthene). The “concentration at which S/R's of rec/pri >1.5 MEAN” value amounted to 15.7 ppb in data set [1] (S9-mix +25 μl/ml); 15.7 ppb in data set [1] (setting [6]); 0.032 ppm in data set [1] (without S9-mix, ratio of mean S/N values, listed as 3Nitrofluoranthene). For the same molecule, the “concentration … (recN2 − 4)” value in data set [3] (S9-mix +25 μl/ml) was found to be 15.7 ppb; in data set [3] (setting [7]), 15.7 ppb; in data set [3] (without S9-mix, maximal S/N, 60-240 min, listed as 3Nitrofluoranthene), 0.032 ppm.

For `Nc1ccc([N+](=O)[O-])cc1N` [4Nitro-o-Phenylenediamine], the “concentration at which S/R's of rec/pri >1.5 MAX” value in data set [1] (S9-mix +25 μl/ml) turned out to be 12.5 ppm; in data set [1] (setting [5]) it was 3.1 ppm. Moreover, the figures for the “concentration at which S/R's of rec/pri >1.5 MEAN” value in data set [1] (S9-mix +25 μl/ml) and in data set [1] (setting [6]) were 12.5 ppm and 1.57 ppm, respectively. Moreover, the “concentration … (recN2 − 4)” value in data set [3] (S9-mix +25 μl/ml) is recorded as 12.5 ppm; in data set [3] (setting [7]) it was 3.1 ppm.

For the molecule `COC(=O)N/N=C/c1c[n+]([O-])c2ccccc2[n+]1[O-]` [Carbadox], in data set [1] (setting [5]), the “concentration at which S/R's of rec/pri >1.5 MAX” value stood at 0.08 ppm. Also, the “concentration at which S/R's of rec/pri >1.5 MEAN” value in data set [1] (setting [6]) worked out at 0.04 ppm. In addition, in data set [3] (setting [7]), the “concentration … (recN2 − 4)” value is 0.08 ppm.

In the case of `c1ccc2c(c1)ccc1c3ccccc3ccc21` [Chrysene], in data set [1] (S9-mix +100 μl/ml), the “concentration at which S/R's of rec/pri >1.5 MAX” value is 10 ppm and the “concentration at which S/R's of rec/pri >1.5 MEAN” value came out at 5 ppm.

Regarding `CCOS(C)(=O)=O` [EMS], in data set [1] (setting [5]), the “concentration at which S/R's of rec/pri >1.5 MAX” value is listed as 256 ppm. In data set [1] (setting [6]), the “concentration at which S/R's of rec/pri >1.5 MEAN” value is on record as 256 ppm. Moreover, in data set [3] (setting [7]), the “concentration … (recN2 − 4)” value is 256 ppm.

On to `ClCC1CO1` (centres unmarked) [Epichlorohydrine], for which the genotoxicity evaluation entry in data set [1] is given as “genotoxic”. Moreover, in data set [2], the “S/N values in the pr1 strain” value was roughly 1 and the toxicity evaluation result was “not toxic in the given dose-range”. In data set [3], the “S/N values in the recN2-4 strain” value is given as greater than 2.

As to `c1ccc2c(c1)-c1cccc3cccc-2c13` [Fluoranthene], in data set [1] (Salmonella typhimurium), the “concentration at which S/R's of rec/pri >1.5 MAX” value is recorded as 3.1 ppm and the “concentration at which S/R's of rec/pri >1.5 MEAN” value is 3.1 ppm. In addition, the “Toxic (pri)” value in data set [2] is “−”. Moreover, the “concentration … (recN2 − 4)” value in data set [3] (Salmonella typhimurium) is recorded as 3.1 ppm.

As for `O=C1OCCN1/N=C/c1ccc([N+](=O)[O-])o1` [Furazolidone], the “concentration at which S/R's of rec/pri >1.5 MAX” value in data set [1] (Salmonella typhimurium) was 0.5 ppb.

As to `COc1ccc2nc3cc(Cl)ccc3c(NCCCNCCCl)c2c1` [ICR 191 Acridine], in data set [1], the “concentration at which S/R's of rec/pri >1.5 MAX” value stood at 1.25 ppm and the “concentration at which S/R's of rec/pri >1.5 MEAN” value worked out at 0.31 ppm. For the same molecule, the “Toxic (pri)” value in data set [2] is “−”. In data set [3], the “concentration … (recN2 − 4)” value was found to be 0.62 ppm.

With `CO[C@@]12[C@H](COC(N)=O)C3=C(C(=O)C(C)=C(N)C3=O)N1C[C@@H]1N[C@@H]12` [MMC], the “concentration at which S/R's of rec/pri >1.5 MEAN” value in data set [1] (setting [6]) amounted to 15.6 ppb.

Regarding `COS(C)(=O)=O` [MMS], the “concentration at which S/R's of rec/pri >1.5 MAX” value in data set [1] (setting [5]) was found to be 8 ppm. Further, the “concentration at which S/R's of rec/pri >1.5 MEAN” value in data set [1] (setting [6]) amounted to 8 ppm. Further, in data set [3] (setting [7]), the “concentration … (recN2 − 4)” value was 16 ppm and 8 ppm.

With `CCN(CC)N=O` [N-Nitrosodiethylamine], in data set [1] (S9-mix +25 μl/ml), the “concentration at which S/R's of rec/pri >1.5 MAX” value came out at 120 ppm and the “concentration at which S/R's of rec/pri >1.5 MEAN” value was 240 ppm. Besides, in data set [3] (S9-mix +25 μl/ml), the “concentration … (recN2 − 4)” value turned out to be 120 ppm.

In the case of `CCn1cc(C(=O)O)c(=O)c2ccc(C)nc21` [Nalidixic acid], the “concentration at which S/R's of rec/pri >1.5 MAX” value in data set [1] (setting [5]) is reported as 0.16 ppm. Also, the “concentration at which S/R's of rec/pri >1.5 MEAN” value in data set [1] (setting [6]) amounted to 0.16 ppm. Also, in data set [2] (setting [8]), the “Toxic (pri)” value is given as “+”. In addition, the “concentration … (recN2 − 4)” value in data set [3] (setting [7]) came out at 0.16 ppm.

On to `O=C(N/N=C/c1ccc([N+](=O)[O-])o1)c1ccc(O)cc1` [Nifuroxazide], for which the “effect at higher doses” value in data set [1] is “toxicity combined with genotoxicity”. For the same molecule, the toxicity evaluation entry in data set [2] (light production, without S9mix) is given as “dose-dependent decrease in light production indicating toxicity”. In data set [2] (pr1 strain, FIG. 4), the “doses not toxic (S/N curves for the pr1 strain)” value is “up to 0.16 ppm”. In addition, the “Toxic (pri)” value in data set [2] (setting [8]) is listed as “+”.

As for `c1ccc2c(c1)ccc1ccccc12` [Phenanthrene], in data set [1] (S9-mix +100 μl/ml), the “concentration at which S/R's of rec/pri >1.5 MAX” value was determined as 6.2 ppm and the “concentration at which S/R's of rec/pri >1.5 MEAN” value came to 6.2 ppm. Further, the “Toxic (pri)” value in data set [2] (S9-mix +100 μl/ml, within the dose-range tested) is given as “+”. Moreover, the “concentration … (recN2 − 4)” value in data set [3] (S9-mix +100 μl/ml) is recorded as 6.2 ppm.

For the molecule `[N-]=[N+]=[N-]` [Sodium azide (NaN3), Sodium azide], the “score in the SOS chromotest” value in the data set on SOS signal is on record as “negative”. Moreover, the genotoxicity evaluation result in data set [1] is given as “non-genotoxic”. In addition, in data set [2], the “Toxic (pri)” value is recorded as “+”. In data set [2] (Salmonella typhimurium), the “S/N values in the pr1 strain” value is given as “greater than 2” and the “S/N, indications of toxicity obtained with time” value is listed as less than 0.8. Moreover, in data set [3] (Salmonella typhimurium), the “S/N values in the recN2-4 strain” value is “greater than 2”. In addition, in data set [4], the “response in the VITOTOX test with the recN2-4 strain alone, previously reported” value is listed as “positive”.

For `Nc1cccc2ccccc12` [a-Naphtylamine], in data set [1], the “concentration at which S/R's of rec/pri >1.5 MAX” value is listed as 2.5 ppm and the “concentration at which S/R's of rec/pri >1.5 MEAN” value was 2.5 ppm.

On to Coumermycine A1, for which the “Toxic (pri)” value in data set [2] is “+”.
